# Experimental data reported in ChEMBL document CHEMBL2417402, “Development and therapeutic implications of selective histone deacetylase 6 inhibitors” (J Med Chem, 2013).
# What was measured:
# [1] = target: T1, Protein deacetylase HDAC6 (Homo sapiens, UniProt Q9UBN7); assay: Inhibition of human recombinant HDAC6 using Ac-Leu-Gly-(AMC)Lys-Ac as substrate
# T1 sequence (Q9UBN7 whole entry): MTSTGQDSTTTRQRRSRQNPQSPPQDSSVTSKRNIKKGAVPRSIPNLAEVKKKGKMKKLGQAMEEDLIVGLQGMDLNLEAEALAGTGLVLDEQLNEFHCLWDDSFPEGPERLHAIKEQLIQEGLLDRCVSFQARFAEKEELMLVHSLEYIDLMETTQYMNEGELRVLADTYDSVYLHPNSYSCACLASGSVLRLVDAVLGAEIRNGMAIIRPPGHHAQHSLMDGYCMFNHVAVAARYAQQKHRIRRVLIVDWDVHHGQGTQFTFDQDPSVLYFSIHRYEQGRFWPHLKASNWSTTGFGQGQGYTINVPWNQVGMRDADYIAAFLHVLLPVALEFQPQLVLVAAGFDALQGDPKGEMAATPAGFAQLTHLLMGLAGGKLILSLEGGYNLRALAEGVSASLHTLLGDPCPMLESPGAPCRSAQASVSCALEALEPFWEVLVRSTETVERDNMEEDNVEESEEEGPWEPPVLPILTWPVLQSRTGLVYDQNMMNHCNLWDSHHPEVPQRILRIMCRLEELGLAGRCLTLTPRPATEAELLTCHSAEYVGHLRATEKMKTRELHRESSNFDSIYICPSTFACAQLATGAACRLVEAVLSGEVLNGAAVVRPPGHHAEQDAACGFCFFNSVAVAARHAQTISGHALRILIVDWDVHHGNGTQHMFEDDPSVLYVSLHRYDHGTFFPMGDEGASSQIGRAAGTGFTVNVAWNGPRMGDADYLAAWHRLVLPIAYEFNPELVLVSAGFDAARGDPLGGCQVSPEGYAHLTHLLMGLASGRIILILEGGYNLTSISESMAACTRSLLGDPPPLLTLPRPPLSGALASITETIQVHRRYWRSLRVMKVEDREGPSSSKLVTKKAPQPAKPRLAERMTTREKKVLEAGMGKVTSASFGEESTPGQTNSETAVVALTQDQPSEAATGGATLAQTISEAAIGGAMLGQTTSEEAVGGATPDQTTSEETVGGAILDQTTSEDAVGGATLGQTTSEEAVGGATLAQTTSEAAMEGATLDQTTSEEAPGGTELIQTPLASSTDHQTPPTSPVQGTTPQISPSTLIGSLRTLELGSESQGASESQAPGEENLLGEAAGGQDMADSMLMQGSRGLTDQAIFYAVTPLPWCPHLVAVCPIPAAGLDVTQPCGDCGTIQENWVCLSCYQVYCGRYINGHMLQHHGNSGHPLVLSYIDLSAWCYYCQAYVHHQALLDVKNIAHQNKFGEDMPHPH
# Histone deacetylase 1 [2] = target: T2, Histone deacetylase 1 (Homo sapiens, UniProt Q13547); assay: Inhibition of human recombinant HDAC1 using Ac-Leu-Gly-(AMC)Lys-Ac as substrate
# Histone deacetylase 11 = target: T3, Histone deacetylase 11 (Homo sapiens, UniProt Q96DB2); assay: Inhibition of HDAC11 (unknown origin)
# T3 sequence (Q96DB2 whole entry): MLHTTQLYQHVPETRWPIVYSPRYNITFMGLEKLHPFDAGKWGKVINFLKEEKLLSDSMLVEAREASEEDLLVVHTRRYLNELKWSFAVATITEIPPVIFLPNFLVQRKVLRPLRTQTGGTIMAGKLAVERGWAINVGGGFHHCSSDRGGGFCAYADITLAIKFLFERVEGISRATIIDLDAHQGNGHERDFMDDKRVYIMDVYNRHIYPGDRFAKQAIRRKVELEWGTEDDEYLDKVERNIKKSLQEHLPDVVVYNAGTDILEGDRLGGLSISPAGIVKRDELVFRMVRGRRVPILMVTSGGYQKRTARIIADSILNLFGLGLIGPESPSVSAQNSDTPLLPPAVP
# Histone deacetylase 7 = target: T4, Histone deacetylase 7 (Homo sapiens, UniProt Q8WUI4); assay: Inhibition of HDAC7 (unknown origin)
# T4 sequence (Q8WUI4 whole entry): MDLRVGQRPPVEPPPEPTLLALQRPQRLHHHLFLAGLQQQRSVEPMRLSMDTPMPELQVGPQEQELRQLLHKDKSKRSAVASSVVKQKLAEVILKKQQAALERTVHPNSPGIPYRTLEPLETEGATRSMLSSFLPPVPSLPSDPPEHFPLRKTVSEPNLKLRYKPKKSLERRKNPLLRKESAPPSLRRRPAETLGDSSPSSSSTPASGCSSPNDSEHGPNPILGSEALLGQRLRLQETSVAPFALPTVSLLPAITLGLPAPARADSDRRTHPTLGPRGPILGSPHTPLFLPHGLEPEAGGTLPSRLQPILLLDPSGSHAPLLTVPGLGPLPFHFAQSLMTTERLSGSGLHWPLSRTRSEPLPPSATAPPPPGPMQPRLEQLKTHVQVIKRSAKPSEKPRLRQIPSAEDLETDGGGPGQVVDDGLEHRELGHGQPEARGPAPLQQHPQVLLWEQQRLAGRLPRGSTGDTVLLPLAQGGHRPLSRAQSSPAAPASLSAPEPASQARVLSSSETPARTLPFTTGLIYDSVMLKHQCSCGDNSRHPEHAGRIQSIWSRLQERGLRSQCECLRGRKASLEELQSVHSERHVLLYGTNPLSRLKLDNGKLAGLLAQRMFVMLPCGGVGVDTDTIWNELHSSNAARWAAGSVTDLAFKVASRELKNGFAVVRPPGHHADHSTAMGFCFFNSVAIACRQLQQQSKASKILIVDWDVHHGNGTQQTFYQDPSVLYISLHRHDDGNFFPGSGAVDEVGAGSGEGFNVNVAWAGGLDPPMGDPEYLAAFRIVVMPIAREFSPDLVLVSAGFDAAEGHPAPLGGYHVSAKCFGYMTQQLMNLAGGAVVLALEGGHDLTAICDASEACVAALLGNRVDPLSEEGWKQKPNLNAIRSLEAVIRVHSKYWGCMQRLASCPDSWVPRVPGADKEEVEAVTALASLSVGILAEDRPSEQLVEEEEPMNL
# Histone deacetylase 5 = Histone deacetylase 5 (Homo sapiens, UniProt Q9UQL6); assay: Inhibition of HDAC5 (unknown origin)
# [3] = target: T1, Protein deacetylase HDAC6; assay: Inhibition of HDAC6 (unknown origin)
# Histone deacetylase 3 [4] = target: T5, Histone deacetylase 3 (Homo sapiens, UniProt O15379); assay: Inhibition of HDAC3 (unknown origin)
# Histone deacetylase 2 [5] = target: T6, Histone deacetylase 2 (Homo sapiens, UniProt Q92769); assay: Inhibition of HDAC2 (unknown origin)
# Histone deacetylase 8 [6] = target: T7, Histone deacetylase 8 (Homo sapiens, UniProt Q9BY41); assay: Inhibition of HDAC8 (unknown origin)
# T7 sequence (Q9BY41 whole entry): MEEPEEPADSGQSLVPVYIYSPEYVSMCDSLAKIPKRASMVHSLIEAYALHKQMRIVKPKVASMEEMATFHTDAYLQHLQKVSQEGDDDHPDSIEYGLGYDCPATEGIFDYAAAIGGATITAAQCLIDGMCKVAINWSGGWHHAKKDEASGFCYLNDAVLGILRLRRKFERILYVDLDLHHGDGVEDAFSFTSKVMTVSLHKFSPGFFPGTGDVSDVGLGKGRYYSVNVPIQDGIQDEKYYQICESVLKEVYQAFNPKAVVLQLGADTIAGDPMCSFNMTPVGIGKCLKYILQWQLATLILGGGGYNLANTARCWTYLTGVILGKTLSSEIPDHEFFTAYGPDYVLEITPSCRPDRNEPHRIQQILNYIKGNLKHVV
# Histone deacetylase 1 [7] = target: T2, Histone deacetylase 1; assay: Inhibition of HDAC1 (unknown origin)
# [8] = target: T8, Polyamine deacetylase HDAC10 (Homo sapiens, UniProt Q969S8); assay: Inhibition of HDAC10 (unknown origin)
# T8 sequence (Q969S8 whole entry): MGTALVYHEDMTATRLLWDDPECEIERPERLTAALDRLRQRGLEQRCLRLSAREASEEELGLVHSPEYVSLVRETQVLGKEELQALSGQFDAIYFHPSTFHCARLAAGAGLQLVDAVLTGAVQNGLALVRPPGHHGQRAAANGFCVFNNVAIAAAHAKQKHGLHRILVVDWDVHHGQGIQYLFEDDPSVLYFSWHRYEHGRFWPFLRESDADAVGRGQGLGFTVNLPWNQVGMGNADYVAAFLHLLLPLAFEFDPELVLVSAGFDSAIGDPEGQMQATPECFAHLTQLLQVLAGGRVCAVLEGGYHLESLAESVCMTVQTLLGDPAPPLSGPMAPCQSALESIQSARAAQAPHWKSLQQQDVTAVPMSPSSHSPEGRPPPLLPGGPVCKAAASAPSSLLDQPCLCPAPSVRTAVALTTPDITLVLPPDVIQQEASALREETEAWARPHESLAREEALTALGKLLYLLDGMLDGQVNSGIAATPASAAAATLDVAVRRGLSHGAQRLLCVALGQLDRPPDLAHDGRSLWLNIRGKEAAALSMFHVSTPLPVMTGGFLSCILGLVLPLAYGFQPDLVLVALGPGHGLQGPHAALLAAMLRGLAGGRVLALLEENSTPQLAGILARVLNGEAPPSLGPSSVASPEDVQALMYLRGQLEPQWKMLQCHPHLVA
# Histone deacetylase 6 = target: T9, Histone deacetylase 6 (Rattus norvegicus, UniProt Q99P97); assay: Inhibition of FLAG-tagged HDAC6 in rat liver extract using alpha-Ac tubulin as substrate
# T9 sequence (Q99P97 whole entry): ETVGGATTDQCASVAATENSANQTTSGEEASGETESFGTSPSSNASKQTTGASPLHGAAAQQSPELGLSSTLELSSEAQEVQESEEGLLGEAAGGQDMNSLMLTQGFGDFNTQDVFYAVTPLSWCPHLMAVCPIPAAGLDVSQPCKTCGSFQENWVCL
# Histone deacetylase 1 [9] = target: Histone deacetylase 1 (Rattus norvegicus, UniProt Q4QQW4); assay: Inhibition of FLAG-tagged HDAC1 in rat liver extract using fluorescent small molecule as substrate
# [10] = target: T8, Polyamine deacetylase HDAC10; assay: Inhibition of C-terminal deleted 38 amino acids (632 to 669) HDAC10 (unknown origin) expressed in sf9 cells using carboxyfluorescein (FAM)-labeled acetylated peptide as substrate after 17 hrs by fluorescence-based electrophoretic assay
# Histone deacetylase 8 [11] = target: T7, Histone deacetylase 8; assay: Inhibition of His-6-tagged full length HDAC8 (unknown origin) expressed in sf9 cells using carboxyfluorescein (FAM)-labeled acetylated peptide as substrate after 17 hrs by fluorescence-based electrophoretic assay
# [12] = target: T1, Protein deacetylase HDAC6; assay: Inhibition of His-6-tagged full length HDAC6 (unknown origin) expressed in sf9 cells using carboxyfluorescein (FAM)-labeled acetylated peptide as substrate after 17 hrs by fluorescence-based electrophoretic assay
# Histone deacetylase 2 [13] = target: T6, Histone deacetylase 2; assay: Inhibition of His-6-tagged full length HDAC2 (unknown origin) expressed in sf9 cells using carboxyfluorescein (FAM)-labeled acetylated peptide as substrate after 17 hrs by fluorescence-based electrophoretic assay
# Histone deacetylase 1 [14] = target: T2, Histone deacetylase 1; assay: Inhibition of His-6-tagged full length HDAC1 (unknown origin) expressed in sf9 cells using carboxyfluorescein (FAM)-labeled acetylated peptide as substrate after 17 hrs by fluorescence-based electrophoretic assay
# Histone deacetylase 3 [15] = target: T5, Histone deacetylase 3; assay: Inhibition of His-6-tagged full length HDAC3 (unknown origin) expressed in sf9 cells and co-expressed in SMRT gene (395 to 489) using carboxyfluorescein (FAM)-labeled acetylated peptide as substrate after 17 hrs by fluorescence-based electrophoretic assay
# T5 sequence (O15379 whole entry): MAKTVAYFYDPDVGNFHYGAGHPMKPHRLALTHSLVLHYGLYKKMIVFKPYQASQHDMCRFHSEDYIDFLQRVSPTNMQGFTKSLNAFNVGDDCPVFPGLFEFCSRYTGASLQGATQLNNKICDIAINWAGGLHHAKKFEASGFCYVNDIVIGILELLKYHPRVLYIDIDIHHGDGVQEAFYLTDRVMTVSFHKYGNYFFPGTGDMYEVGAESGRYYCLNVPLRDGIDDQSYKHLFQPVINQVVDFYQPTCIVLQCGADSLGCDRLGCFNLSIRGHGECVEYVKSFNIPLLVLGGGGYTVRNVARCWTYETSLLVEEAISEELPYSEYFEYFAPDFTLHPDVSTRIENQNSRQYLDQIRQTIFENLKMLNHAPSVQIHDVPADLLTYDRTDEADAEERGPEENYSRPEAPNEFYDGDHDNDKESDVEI
# T6 sequence (Q92769 whole entry): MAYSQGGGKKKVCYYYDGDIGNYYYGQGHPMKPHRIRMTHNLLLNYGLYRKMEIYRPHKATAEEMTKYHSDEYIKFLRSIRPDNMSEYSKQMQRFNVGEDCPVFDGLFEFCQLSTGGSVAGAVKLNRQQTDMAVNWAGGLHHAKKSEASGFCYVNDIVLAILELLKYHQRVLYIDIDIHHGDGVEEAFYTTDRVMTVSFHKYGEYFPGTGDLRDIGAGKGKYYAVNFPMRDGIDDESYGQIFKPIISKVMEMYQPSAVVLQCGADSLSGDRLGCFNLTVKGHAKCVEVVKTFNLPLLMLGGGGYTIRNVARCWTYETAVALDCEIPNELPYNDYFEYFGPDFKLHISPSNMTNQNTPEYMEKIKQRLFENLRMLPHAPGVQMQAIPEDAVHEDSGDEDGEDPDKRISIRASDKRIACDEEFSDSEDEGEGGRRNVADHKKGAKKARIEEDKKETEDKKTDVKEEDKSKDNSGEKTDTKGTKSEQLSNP
# T2 sequence (Q13547 whole entry): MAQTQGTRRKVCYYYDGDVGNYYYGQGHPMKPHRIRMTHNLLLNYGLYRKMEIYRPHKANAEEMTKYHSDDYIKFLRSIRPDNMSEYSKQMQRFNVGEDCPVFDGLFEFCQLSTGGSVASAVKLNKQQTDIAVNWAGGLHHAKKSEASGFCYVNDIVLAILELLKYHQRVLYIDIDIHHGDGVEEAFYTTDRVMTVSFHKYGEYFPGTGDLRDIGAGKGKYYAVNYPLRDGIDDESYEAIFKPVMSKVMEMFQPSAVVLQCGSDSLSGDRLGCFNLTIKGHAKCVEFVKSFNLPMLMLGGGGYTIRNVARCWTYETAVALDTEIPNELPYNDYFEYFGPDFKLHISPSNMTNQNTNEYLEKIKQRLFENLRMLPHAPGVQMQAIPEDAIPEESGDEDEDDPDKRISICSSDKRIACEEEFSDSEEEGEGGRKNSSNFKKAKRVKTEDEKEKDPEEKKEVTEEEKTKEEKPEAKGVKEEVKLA
# Sequence of Histone deacetylase 5 (Q9UQL6 whole entry): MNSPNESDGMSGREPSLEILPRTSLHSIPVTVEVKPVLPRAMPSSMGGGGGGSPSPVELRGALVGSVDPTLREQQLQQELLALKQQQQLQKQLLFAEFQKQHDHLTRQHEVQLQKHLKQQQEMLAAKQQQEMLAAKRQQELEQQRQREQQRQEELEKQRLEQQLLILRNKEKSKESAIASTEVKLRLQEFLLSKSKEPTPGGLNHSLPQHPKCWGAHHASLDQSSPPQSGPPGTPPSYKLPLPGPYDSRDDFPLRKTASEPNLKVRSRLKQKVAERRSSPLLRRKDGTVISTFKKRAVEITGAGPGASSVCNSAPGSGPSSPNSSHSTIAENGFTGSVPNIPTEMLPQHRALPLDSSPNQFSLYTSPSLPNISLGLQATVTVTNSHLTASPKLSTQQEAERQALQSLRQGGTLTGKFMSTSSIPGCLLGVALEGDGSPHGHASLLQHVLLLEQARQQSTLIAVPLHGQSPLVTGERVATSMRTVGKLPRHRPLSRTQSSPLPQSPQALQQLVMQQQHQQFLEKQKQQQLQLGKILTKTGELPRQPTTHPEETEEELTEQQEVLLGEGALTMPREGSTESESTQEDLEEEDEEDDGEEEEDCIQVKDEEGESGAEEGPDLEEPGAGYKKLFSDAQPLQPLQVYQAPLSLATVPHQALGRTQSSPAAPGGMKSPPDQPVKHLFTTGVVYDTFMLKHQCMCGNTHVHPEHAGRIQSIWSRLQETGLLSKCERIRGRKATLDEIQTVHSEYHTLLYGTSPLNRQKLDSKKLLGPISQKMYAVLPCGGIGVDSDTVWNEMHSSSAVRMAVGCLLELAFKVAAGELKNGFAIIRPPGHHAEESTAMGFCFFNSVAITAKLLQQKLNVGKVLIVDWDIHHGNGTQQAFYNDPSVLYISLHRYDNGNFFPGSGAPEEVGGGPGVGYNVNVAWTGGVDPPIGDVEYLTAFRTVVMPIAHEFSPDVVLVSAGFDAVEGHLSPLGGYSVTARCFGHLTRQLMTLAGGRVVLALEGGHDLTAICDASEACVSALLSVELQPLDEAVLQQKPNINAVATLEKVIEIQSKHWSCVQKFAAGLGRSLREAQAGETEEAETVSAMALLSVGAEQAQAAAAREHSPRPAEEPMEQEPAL
# Sequence of Histone deacetylase 1 (Rattus norvegicus, UniProt Q4QQW4) (Q4QQW4 whole entry, the tested form may be a part): as the sequence (Q13547 whole entry) above, with R8K, D399E, E424D, L481M counted along it
IC50 [10] [nM],IC50 (Histone deacetylase 8 [11]) [nM],IC50 [12] [nM],IC50 (Histone deacetylase 2 [13]) [nM],IC50 (Histone deacetylase 1 [14]) [nM],SMILES,IC50 (Histone deacetylase 11) [nM],IC50 (Histone deacetylase 7) [nM],IC50 (Histone deacetylase 5) [nM],IC50 [3] [nM],IC50 (Histone deacetylase 3 [4]) [nM],IC50 (Histone deacetylase 2 [5]) [nM],also measured
,,,,,O=C(NC1=CC(=O)c2ccccc2C1=O)c1ccccc1,,,,,,,IC50 [1]: 5540 nM; IC50 (Histone deacetylase 1 [2]): > 180000 nM
,,,,,O=C(CS)NCCCCCC(=O)Nc1cccc2cccnc12,610,2780,890,21,1320,1250,
,,,,,O=C(CCCCCNC(=O)NC12CC3CC(CC(C3)C1)C2)NO,190,1290,310,73,1560,2580,IC50 (Histone deacetylase 8 [6]): 6800 nM; IC50 (Histone deacetylase 1 [7]): 580 nM; IC50 [8]: 270 nM
,,,,,COC(=O)[C@H](Cc1ccccc1)NC(=O)CCCCCCCCC(=O)NO,,,,,,,IC50 (Histone deacetylase 6): 910 nM; IC50 (Histone deacetylase 1 [9]): 28600 nM
70,2660,16,193,52,O=C(CCCCCCC(=O)Nc1ccc(-c2ccccc2NC(=O)[C@@H]2CCCN2)cc1)NO,,,,,,,
6,2580,< 0.2,21,4,CC(C)(C)OC(=O)Nc1cccc(-c2csc(NC(=O)CCCCCCC(=O)NO)n2)c1,,,,,,,IC50 (Histone deacetylase 3 [15]): 2 nM
